According to patent publication US20190134039A1, “ANTIVIRAL JAK INHIBITORS USEFUL IN TREATING OR PREVENTING RETROVIRAL AND OTHER VIRAL INFECTIONS” (EMORY UNIVERSITY, priority 2011, published 2019):
Counter-ions that a name gives are not always drawn. Like-named read-outs stand apart in the source and are kept apart here.

How the values were obtained:
Type in all cases: cell-based
[1] = test system: various NRTI-resistant HIV-1; assay: Antiviral potency against various NRTI-resistant HIV-1 in primary human lymphocytes (summary over strains); settings: K65R, M184V, L74V, A62V/V75I/F77L/F116Y/Q151M, 4xAZT
Text: FI50 is the ratio of EC50 against mutant virus:EC50 against wild-type xxLAI. FI90 is the ratio of EC90 against mutant virus:EC90 against wild-type xxLAI.

HIV-1 containing K65R = assay: microbe, parasite or virus in culture; settings: for EC50 / EC90: Human immunodeficiency virus 1, Lymphocyte; for FI50 (ratio of EC50 against mutant virus:EC50 against wild-type xxLAI) / FI90 (ratio of EC90 against mutant virus:EC90 against wild-type xxLAI): K65R
[2] = test system: HIV-1 containing 4xAZT (D67N/K70R/T215Y/K219Q); assay: microbe, parasite or virus in culture; settings: for FI50 (ratio of EC50 against mutant virus:EC50 against wild-type xxLAI) / FI90 (ratio of EC90 against mutant virus:EC90 against wild-type xxLAI): 4xAZT (D67N/K70R/T215Y/K219Q); for EC50 / EC90: Human immunodeficiency virus 1, Lymphocyte
HIV-1 containing M184V = assay: microbe, parasite or virus in culture; settings: for EC50 / EC90: Human immunodeficiency virus 1, Lymphocyte; for FI50 (ratio of EC50 against mutant virus:EC50 against wild-type xxLAI) / FI90 (ratio of EC90 against mutant virus:EC90 against wild-type xxLAI): M184V
wild-type HIV-1xxLAI = assay: Antiviral potency in primary human lymphocytes, wild type; settings: Human immunodeficiency virus 1, Lymphocyte
[3] = test system: HIV-1 containing A62V/V75I/F77L/F116Y/Q151M; assay: microbe, parasite or virus in culture; settings: for FI50 (ratio of EC50 against mutant virus:EC50 against wild-type xxLAI) / FI90 (ratio of EC90 against mutant virus:EC90 against wild-type xxLAI): A62V/V75I/F77L/F116Y/Q151M; for EC50 / EC90: Human immunodeficiency virus 1, Lymphocyte
HIV-1 containing L74V = assay: microbe, parasite or virus in culture; settings: for EC50 / EC90: Human immunodeficiency virus 1, Lymphocyte; for FI50 (ratio of EC50 against mutant virus:EC50 against wild-type xxLAI) / FI90 (ratio of EC90 against mutant virus:EC90 against wild-type xxLAI): L74V
[4] = xxLAI, primary human lymphocytes, read-out: EC50
[5] = xxLAI, primary human lymphocytes, read-out: EC90

Structure (SMILES) | EC50 (HIV-1 containing K65R) [µM] | EC90 (HIV-1 containing K65R) [µM] | FI50 (ratio of EC50 against mutant virus:EC50 against wild-type xxLAI) (HIV-1 containing K65R) | FI90 (ratio of EC90 against mutant virus:EC90 against wild-type xxLAI) (HIV-1 containing K65R) | FI50 (ratio of EC50 against mutant virus:EC50 against wild-type xxLAI) [2] | FI90 (ratio of EC90 against mutant virus:EC90 against wild-type xxLAI) [2] | EC50 [2] [µM] | EC50 (HIV-1 containing M184V) [µM] | EC90 (HIV-1 containing M184V) [µM] | FI50 (ratio of EC50 against mutant virus:EC50 against wild-type xxLAI) (HIV-1 containing M184V) | FI90 (ratio of EC90 against mutant virus:EC90 against wild-type xxLAI) (HIV-1 containing M184V) | EC50 (wild-type HIV-1xxLAI; [4]) [µM] | EC90 (wild-type HIV-1xxLAI; [5]) [µM] | FI50 (ratio of EC50 against mutant virus:EC50 against wild-type xxLAI) [3] | FI90 (ratio of EC90 against mutant virus:EC90 against wild-type xxLAI) [3] | EC50 [3] [µM] | EC90 [3] [µM] | EC50 (HIV-1 containing L74V) [µM] | FI50 (ratio of EC50 against mutant virus:EC50 against wild-type xxLAI) (HIV-1 containing L74V) | FI90 (ratio of EC90 against mutant virus:EC90 against wild-type xxLAI) (HIV-1 containing L74V) | other results
O=C1Nc2ccc(Cl)cc2[C@@](C#CC2CC2)(C(F)(F)F)O1 [EFV, efavirenz] | 0.007 | 0.02 ± 0.01 | 0.3 | 0.1 | 3.1 | 1 | 0.07 ± 0.04 | 0.01 ± 0.006 | 0.08 ± 0.08 | 0.5 | 0.4 | 0.02 ± 0.03 | 0.2 ± 0.3 | 7.7 | 2 | 0.2 ± 0.3 | 0.44 ± 0.6 | 0.06 ± 0.07 | 2.6 | 1.1 | antiviral potency for wild-type HIV-1xxLAI versus NRTI-resistant HIV-1 [1]: similarly potent across all NRTI resistant strains
CC(C)OC(=O)OCOP(=O)(CO[C@H](C)Cn1cnc2c(N)ncnc21)OCOC(=O)OC(C)C [TDF, Tenofovir disoproxil fumarate] | 0.4 ± 0.1 | 1.6 ± 0.5 | 2.2 | 1.7 | 1.3 | 1.3 | 0.07 ± 0.04 | 0.09 ± 0.03 | 0.5 ± 0.3 | 0.6 | 0.6 | 0.2 ± 0.2 | 0.9 ± 0.8 | 3.9 | 3.9 | 0.7 ± 0.8 | 3.6 ± 2.2 |  | 1.4 | 1.2 | EC90 [2]: 1.2 ± 1.1 µM; EC90 (HIV-1 containing L74V): 0.2 ± 0.1 µM
OC[C@@H]1CC[C@H](n2cnc3c(O)ncnc32)O1 [ddI, 2′,3′-dideoxyinosine] | 21.2 ± 18.3 | 86.7 ± 0.8 | 1.8 | 1.6 | 3.1 | 1.4 | 35.5 ± 31 | 11.5 ± 9.1 | 44.9 ± 26.2 | 1 | 0.8 | 11.5 ± 6.6 | 55.4 ± 23 | 3.5 | 1.5 | 40.5 ± 52.1 | 83.5 ± 28.6 | 13.2 ± 8.5 | 1.1 | 1.1 | EC90 [2]: 77.1 ± 32.4 µM; EC90 (HIV-1 containing L74V): 80.9 ± 16.6 µM
Cc1cn([C@H]2C=C[C@@H](CO)O2)c(=O)[nH]c1=O [Compound D4T, 2′,3′-dideoxy-2′,3′-didehydrothymidine] | 1.5 ± 0.6 | 7.9 ± 0.3 | 1.5 | 1.2 |  | 8.3 | 27.8 ± 37.1 | 0.6 ± 0.8 | 2.6 ± 2.5 | 0.6 | 0.4 |  |  | 6.9 | 11 | 6.8 ± 5.7 | 70.3 ± 51.4 | 0.9 ± 0.8 | 0.9 | 1.5 | EC90 [2]: 53.2 ± 66.3 µM; EC50 (wild-type HIV-1xxLAI): 1 ± 0.5 µM; EC90 (wild-type HIV-1xxLAI): 6.4 ± 0.4 µM; EC90 (HIV-1 containing L74V): 9.8 ± 2.4 µM
Nc1ccn([C@@H]2CS[C@H](CO)O2)c(=O)n1 [Compound 3TC, (−)-cis-2-hydroxymethyl-5-(cytosin-1-yl)-1,3-oxathiolane] | 2.5 ± 3 | 6 ± 5.3 | 3.3 | 1.9 | 0.9 | 1.1 | 0.7 ± 0.8 | > 10 | > 10 | 13.3 | 3.2 | 0.8 ± 0.4 | 3.1 ± 1.2 | 0.6 | 0.9 | 0.5 ± 0.7 | 2.7 ± 1.7 | 0.6 ± 0.8 | 0.7 | 0.9 | EC90 [2]: 3.4 ± 1.1 µM; EC90 (HIV-1 containing L74V): 2.9 ± 2.9 µM
Nc1nc(=O)n([C@@H]2CS[C@H](CO)O2)cc1F (relative stereo) [(−)FTC, cis-2-hydroxymethyl-5-(5-fluorocytosin-1-yl)-1,3-oxathiolane] | 0.5 ± 0.4 | 2.4 ± 1.4 | 5.5 | 2.9 | 2 | 1.4 | 0.2 ± 0.1 | 10.1 ± 7.3 | 41.3 ± 29.3 | 117 | 50 | 0.09 ± 0.02 | 0.8 ± 0.4 | 4.2 | 2.5 | 0.4 ± 0.3 | 2.1 ± 1.6 | 0.2 ± 0.2 | 2 | 1.6 | EC90 [2]: 1.2 ± 0.1 µM; EC90 (HIV-1 containing L74V): 1.3 ± 1 µM
